Several values for one entry are separate records, joined by “and”; a condition that tells them apart may be missing. Equal values may be shown once. Blank lines part the entries; values can stand above or below the compound they belong to.
Assays:
Caco-2 cells = test: Cytotoxicity in Caco-2 cells, CCK-8 assay; assay type: cell-based, human; details: for Cell survival rate%: mean; for cck-8 mean (survival fraction): mean of 6
Protocol: Caco-2 cells were cultured in 96-well plates for 48 h at a seeding density of 5.0 × 10^3 cells/well before the addition of drugs. […] The final concentration of DMSO was 0.05% (v/v). Experiments were initiated by replacing the culture medium in each well with 100 μL of sample solutions at 37°C in the CO2 incubator. After 48 h of incubation, the medium was removed and 10 μL of CCK-8 reagent in the serum-free medium was added to each well. The plates were then incubated at 37°C for another 2 h. At the end of the incubation period, the plates were quantified by reading the absorbance at 450 nm on a micro-plate multi-detection instrument, SpectraMax iD3 with SoftMax® Pro (Molecular Devices Corporation Sunnyvale, CA, USA). The percentage of cell viability was calculated based on the absorbance measured relative to the absorbance of cells exposed to the negative control.

P-glycoprotein (P-gp) = target: T1, P-glycoprotein (P-gp) (Homo sapiens, UniProt P08183); test: Rhodamine 123 (P-gp substrate) transport across drug-treated Caco-2 cell monolayers; assay type: cell-based; details: co-incubated with R123, 10 μM, Caco-2 monolayer, Fig 6
T1 construct: The transport of R123 in normal Caco-2 cell monolayers or drug-treated Caco-2 cell monolayers was further studied; host or cells: Caco-2
T1 sequence (P08183 whole entry): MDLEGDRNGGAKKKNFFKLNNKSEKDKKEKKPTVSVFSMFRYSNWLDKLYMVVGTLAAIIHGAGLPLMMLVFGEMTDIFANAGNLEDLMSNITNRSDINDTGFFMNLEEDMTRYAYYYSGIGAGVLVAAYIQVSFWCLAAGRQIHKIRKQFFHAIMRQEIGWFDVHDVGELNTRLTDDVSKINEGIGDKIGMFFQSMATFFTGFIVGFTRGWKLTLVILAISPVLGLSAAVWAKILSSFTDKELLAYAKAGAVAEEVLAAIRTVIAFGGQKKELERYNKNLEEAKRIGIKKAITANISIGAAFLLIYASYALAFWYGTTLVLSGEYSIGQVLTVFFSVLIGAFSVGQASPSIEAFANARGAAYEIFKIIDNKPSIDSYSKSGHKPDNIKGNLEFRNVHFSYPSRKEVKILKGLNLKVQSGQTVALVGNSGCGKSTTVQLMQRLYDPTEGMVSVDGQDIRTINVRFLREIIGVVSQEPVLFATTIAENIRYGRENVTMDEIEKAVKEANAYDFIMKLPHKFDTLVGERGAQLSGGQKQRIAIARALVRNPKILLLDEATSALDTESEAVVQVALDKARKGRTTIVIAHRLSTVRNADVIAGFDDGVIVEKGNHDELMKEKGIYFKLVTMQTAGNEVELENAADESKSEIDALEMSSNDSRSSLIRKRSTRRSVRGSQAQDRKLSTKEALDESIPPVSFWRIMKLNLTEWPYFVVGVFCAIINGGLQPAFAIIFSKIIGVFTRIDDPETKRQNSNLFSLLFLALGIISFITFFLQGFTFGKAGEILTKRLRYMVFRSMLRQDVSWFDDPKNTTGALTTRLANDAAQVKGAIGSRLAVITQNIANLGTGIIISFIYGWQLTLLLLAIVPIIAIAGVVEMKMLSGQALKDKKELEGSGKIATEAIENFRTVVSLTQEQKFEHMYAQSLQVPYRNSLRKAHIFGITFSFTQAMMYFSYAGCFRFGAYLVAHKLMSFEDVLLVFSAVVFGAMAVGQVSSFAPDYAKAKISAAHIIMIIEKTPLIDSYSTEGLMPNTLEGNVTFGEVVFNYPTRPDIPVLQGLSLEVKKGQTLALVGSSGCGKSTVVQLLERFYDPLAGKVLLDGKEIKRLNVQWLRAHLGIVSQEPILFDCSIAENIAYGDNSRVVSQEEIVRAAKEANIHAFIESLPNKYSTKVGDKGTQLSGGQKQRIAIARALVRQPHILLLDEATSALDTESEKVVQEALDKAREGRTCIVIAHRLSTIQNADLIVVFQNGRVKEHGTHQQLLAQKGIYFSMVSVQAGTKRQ
From the text: The human epithelial cell line Caco-2 serves as a widely recognized model for the intestinal epithelial barrier, frequently utilized in the assessment of drug absorption and transport mechanisms. In this study, we evaluated drug absorption and distribution in vitro with the help of the Caco-2 cell model. Caco-2 cells were purchased from the Chinese Academy of Medical Sciences (Beijing, China, Resource No. 3111C0001CCC000100). The cells were resuscitated and inserted into culture flasks. Caco-2 cells were passaged with DMEM high glucose medium containing 10% (V/V) FBS, 1% (V/V) non-essential amino acid solution and 100 U/mL penicillin-streptomycin double antibiotic solution, and cultured at 37°C in a 5% CO2 incubator. […] The integrity of the cell monolayer was checked by measuring the transmembrane electrical resistance (TEER) of the monolayer cells with a Millicell-ERS electrode (Millipore Corp., Billerica, MA, USA). Caco-2 cells were used for transport experiments 17–21 days after inoculation. Besides, only monolayers with TEER values above 400 Ω/cm^2 were used in the study.
The transport of R123 in normal Caco-2 cell monolayers or drug-treated Caco-2 cell monolayers was further studied. […] The transport buffer containing 5 μM of R123 was added on either the AP or the BL side of the inserts, as described above. […] The concentrations of R123 were immediately analyzed by SpectraMax iD3. The excitation wavelength was set at 485 nm, and the emission wavelength at 535 nm. Papp values across the cell monolayers were calculated according to the equation: Papp = dQ/dt × 1/(A × C0), where dQ/dt represents the rate of drug transport. […] The efflux ratio was calculated using the Papp (BL-AP) to Papp (AP-BL) ratio.

[1] = Stability of the five compounds in SD rat plasma (QC samples, UHPLC-ESI-MS/MS); assay type: in vitro ADME; details: for stability, Accuracy (measured versus nominal concentration) / stability, mean ± SD (measured concentration): SD rat plasma, n=5
Protocol: The method was validated according to the US Food and Drug Administration (FDA) Bioanalytical Method Validation Guidance as follows: [1] specificity was assessed by analyzing blank plasma, blank plasma spiked with standard solutions and rat plasma samples after oral administration. Each calibration curve was plotted using the concentration of the standard solution as the horizontal coordinate and the ratio of analyte to internal standard peak area as the vertical coordinate. The lower limit of quantification (LLOQ) refers to the lowest concentration, which is typically 10 times the signal-to-noise ratio. It has an acceptable accuracy of ± 20% and a precision of less than 20% [3]. Quality Control (QC) samples (low, medium and high concentrations) were prepared for each analyte. Five samples were analyzed at each concentration level and three consecutive batches were determined to calculate the accuracy and precision of the method. Extraction recovery was assessed by the ratio of the average peak area of routinely prepared QC samples (low, medium, and high concentrations) to the post-extraction plasma sample. Likewise, matrix effect was assessed by the ratio of peak areas between post-extraction samples spiked with analytes and mobile phases spiked with the same concentration of analytes.

[2] = male, Sprague Dawley, rat, in vivo
Protocol: (§1) Blood samples were centrifuged at 3500 rpm for 5 min at 4°C. All plasma samples were then stored at -80°C until analysis.
(§2) All samples were stored in a refrigerator at -80°C and thawed at room temperature before processing. A 50 μL aliquot of plasma was added with 5 μL of the standard solution (or acetonitrile) and 100 μL of internal standard solution in turn, vortexed and mixed, then sonicated for 3 min, centrifuged at 14000 rpm for 10 min at low temperature. The supernatant was transferred to an autosampler vial and analyzed by UHPLC-ESI-MS/MS.
(§3) The mobile phase consisted of 0.1% formic acid solution (A) and acetonitrile (B).
(§4) The ESI ionization source was used and detected in MRM mode.
(§5) All data were presented as mean ± SD. Pharmacokinetic parameters including half-life (t1/2), maximum plasma time (Tmax) and concentration (Cmax), area under concentration-time curve (AUC0-t and AUC0-∞), clearance (CL), steady-state volume of distribution (Vz), and mean residence time (MRT) were analyzed by non-compartmental method using DAS Version 2.0 (Chinese Pharmacological Society, Beijing, China). […] The data were analyzed by Student’s t-test for two groups and one-way analysis of variance for multiple groups; p < 0.05 was considered statistically significant.

in vivo = details: male, Sprague Dawley, rat, po, 352 mg/kg
Protocol: as §1, §2, §3, §4, §5

CYP3A4 = details: read-out: IC50 of CYP3A4 inhibition; cited from earlier work
[3] = Caco-2, concentration 10 μmol/L
[4] = Caco-2, concentration 20 μmol/L
[5] = Caco-2, concentration 40 μmol/L
[6] = Caco-2, concentration 80 μmol/L
[7] = nominal 160 ng/mL, 3 freeze-thaw cycles
[8] = nominal 160 ng/mL, 7 days at -80°C
[9] = nominal 160 ng/mL, Room temperature 24h
[10] = nominal 1000 ng/mL, 3 freeze-thaw cycles
[11] = nominal 1000 ng/mL, 7 days at -80°C
[12] = nominal 1000 ng/mL, Room temperature 24h
[13] = nominal 5000 ng/mL, 3 freeze-thaw cycles
[14] = nominal 5000 ng/mL, 7 days at -80°C
[15] = nominal 5000 ng/mL, Room temperature 24h

- reduction of R123 transport from the BL side to the AP side (P-glycoprotein (P-gp)): 45.21%
- Stability, measured concentration, mean ± SD ([1]; QC sample 160 ng/mL, 3 freeze-thaw cycles): 161 ± 10.8 ng/mL and 160.872 ng/mL
- Stability, measured concentration, mean ± SD ([1]; QC sample 160 ng/mL, 7 days at -80°C): 149 ± 5.80 ng/mL and 149.16 ng/mL
- Stability, measured concentration, mean ± SD ([1]; QC sample 160 ng/mL, Room temperature 24h): 151 ± 5.81 ng/mL and 151.046 ng/mL
- Stability, measured concentration, mean ± SD ([1]; QC sample 1000 ng/mL, 3 freeze-thaw cycles): 914 ± 35.7 ng/mL and 914.334 ng/mL
- Stability, measured concentration, mean ± SD ([1]; QC sample 1000 ng/mL, 7 days at -80°C): 1064 ± 21.4 ng/mL and 1063.64 ng/mL
- Stability, measured concentration, mean ± SD ([1]; QC sample 1000 ng/mL, Room temperature 24h): 959.663 ng/mL and 960 ± 45.4 ng/mL
- Stability, measured concentration, mean ± SD ([1]; QC sample 5000 ng/mL, 3 freeze-thaw cycles): 4813 ± 108 ng/mL and 4813.44 ng/mL
- Stability, measured concentration, mean ± SD ([1]; QC sample 5000 ng/mL, 7 days at -80°C): 4814 ± 118 ng/mL and 4813.94 ng/mL
- Stability, measured concentration, mean ± SD ([1]; QC sample 5000 ng/mL, Room temperature 24h): 5079.03 ng/mL and 5079 ± 336 ng/mL
- stability, Accuracy (measured versus nominal concentration) [1, 7]: 100.54%
- stability, mean ± SD (measured concentration) [1, 7]: 161 ± 10.8 ng/mL
- stability, Accuracy (measured versus nominal concentration) [1, 8]: 93.23%
- stability, mean ± SD (measured concentration) [1, 8]: 149 ± 5.80 ng/mL
- stability, Accuracy (measured versus nominal concentration) [1, 9]: 94.40%
- stability, mean ± SD (measured concentration) [1, 9]: 151 ± 5.81 ng/mL
- stability, Accuracy (measured versus nominal concentration) [1, 10]: 91.43%
- stability, mean ± SD (measured concentration) [1, 10]: 914 ± 35.7 ng/mL
- stability, Accuracy (measured versus nominal concentration) [1, 11]: 106.36%
- stability, mean ± SD (measured concentration) [1, 11]: 1064 ± 21.4 ng/mL
- stability, Accuracy (measured versus nominal concentration) [1, 12]: 95.97%
- stability, mean ± SD (measured concentration) [1, 12]: 960 ± 45.4 ng/mL
- stability, Accuracy (measured versus nominal concentration) [1, 13]: 96.27%
- stability, mean ± SD (measured concentration) [1, 13]: 4813 ± 108 ng/mL
- stability, Accuracy (measured versus nominal concentration) [1, 14]: 96.28%
- stability, mean ± SD (measured concentration) [1, 14]: 4814 ± 118 ng/mL
- stability, Accuracy (measured versus nominal concentration) [1, 15]: 101.58%
- stability, mean ± SD (measured concentration) [1, 15]: 5079 ± 336 ng/mL
- CLz [2]: 24 mL/day/kg
- CL ([2]; po, 352 mg/kg): 0.001 ± 0.001 L/h
- Vz ([2]; po, 352 mg/kg): 0.005 ± 0.001 L
- AUC(0-inf) (in vivo): 29.7 ± 6.7 µg·h/mL
- AUC(0-t) (in vivo): 28.7 ± 6.66 µg·h/mL
- Cmax (in vivo; Cmax): 10.4 ± 2.44 µg/mL
- MRT inf (in vivo; MRT(0-∞)): 6.08 ± 1.27 h
- half-life (in vivo; t1/2): 4.64 ± 1.18 h
- half-life (in vivo; t1/2z): 3.97 h
SMILES: CC1=C[C@H]2[C@@H](CC1)[C@H](C)CC[C@H]2[C@@H](C)C(=O)O [DHAA, Dihydroartemisinic acid]
- Cell survival rate%, single replicate (Caco-2 cells; Caco-2, 5μmol/L): 84.02% and 84.22% and 87.64% and 85.87% and 89.84% and 87.8%
- Cell survival rate%, single replicate (Caco-2 cells; Caco-2, 10μmol/L): 84.68% and 88.84% and 86.58% and 89.08% and 86.49% and 80.21%
- Cell survival rate%, single replicate (Caco-2 cells; Caco-2, 20μmol/L): 84.63% and 81.53% and 85.05% and 89.44% and 83.52% and 78.29%
- Cell survival rate%, single replicate (Caco-2 cells; Caco-2, 40μmol/L): 84.99% and 84.53% and 82.56% and 83.98% and 80.6% and 81.3%
- Cell survival rate%, single replicate (Caco-2 cells; Caco-2, 80μmol/L): 80.04% and 80.37% and 80.83% and 80.86% and 80.51% and 80.11%
- cck-8 cell survival as fraction, single replicate (Caco-2 cells; Caco-2, concentration 5 μmol/L): 0.8402 and 0.8422 and 0.8764 and 0.8587 and 0.8984 and 0.878
- Cell survival rate% (Caco-2 cells; Caco-2, concentration 5 μmol/L): 86.56%
- cck-8 mean (survival fraction) (Caco-2 cells; Caco-2, concentration 5 μmol/L): 0.87
- cck-8 cell survival as fraction, single replicate (Caco-2 cells; [3]): 0.8468 and 0.8884 and 0.8658 and 0.8908 and 0.8649 and 0.8021
- Cell survival rate% (Caco-2 cells; [3]): 85.98%
- cck-8 mean (survival fraction) (Caco-2 cells; [3]): 0.86
- cck-8 cell survival as fraction, single replicate (Caco-2 cells; [4]): 0.8463 and 0.8153 and 0.8505 and 0.8944 and 0.8352 and 0.7829
- Cell survival rate% (Caco-2 cells; [4]): 83.74%
- cck-8 mean (survival fraction) (Caco-2 cells; [4]): 0.84
- cck-8 cell survival as fraction, single replicate (Caco-2 cells; [5]): 0.8499 and 0.8453 and 0.8256 and 0.8398 and 0.806 and 0.813
- Cell survival rate% (Caco-2 cells; [5]): 82.99%
- cck-8 mean (survival fraction) (Caco-2 cells; [5]): 0.83
- cck-8 cell survival as fraction, single replicate (Caco-2 cells; [6]): 0.8004 and 0.8037 and 0.8083 and 0.8086 and 0.8051 and 0.8011
- Cell survival rate% (Caco-2 cells; [6]): 80.45%
- cck-8 mean (survival fraction) (Caco-2 cells; [6]): 0.80

SMILES: C=C1C(=O)O[C@@]23[C@H]1CC[C@@H](C)[C@@H]2CC[C@@]1(C)O[C@@H]31 [arteannuin B]
- IC50 (CYP3A4): 1.2 µM
